Test results taken from US7138406B2, “Modulators of the glucocorticoid receptor” (Pfizer, Inc., priority 2002, dated 2006).

System: IL-8 (Interleukin-8) production
Assay: glucocorticoid inhibition of IL-1 induced IL-8 production in human chondrosarcoma cells
Type: cell-based
Settings: SW1353 human chondrosarcoma cells, 20 ng/ml IL-1 beta, 24 hours after addition of IL-1, ELISA; read-out: IC50, inhibitor of IL-8 expression
Experimental: (§1) This assay, the glucocorticoid inhibition of IL-1 (Interleukin-1) induced MMP-1 (Matrix Metalloproteinase-1) and IL-8 (Interleukin-8) production in human chondrosarcoma cells, is conducted as follows: SW1353 human chondrosarcoma cells (obtained from ATCC) from passage 12 through passage 19 are used in a 96 well format assay. Cells are plated at confluence into 96 well plates in DMEM (Dulbecco's Modified Eagle Medium) with 10% fetal bovine serum and incubated at 37° C., 5% CO2. After 24 hours, serum containing media is removed and replaced with 200 ul/well DMEM containing 1 mg/L insulin, 2 g/L lactalbumin hydrosylate, and 0.5 mg/L ascorbic acid and returned to incubation at 37° C., 5% CO2. […] IL-8 production is assessed using the Quantikine human IL-8 ELISA kit from R&D Systems (D8050) on samples diluted 60-fold in RD5P Calibrator Diluent, following the manufacturer's protocol. The percent of the average IL-1 control is determined for the average of each of the triplicate samples following subtraction of the average signal from untreated cells. IC50's are determined from log linear plots of the percent of control versus the concentration of inhibitor. […] MMP-1 production is assessed via the Bio-Trak MMP-1 ELISA kit from Amersham (RPN2610) on 100 ul of neat sample following the manufacturer's protocol. […]

Row | Structure (SMILES) | IC50
1 | C[C@@H]1C[C@H]2[C@@H]3CCC4=CC(=O)C=C[C@]4(C)[C@@]3(F)[C@@H](O)C[C@]2(C)[C@@]1(O)C(=O)CO [Dexamethasone, (11β,16α)-9-fluoro-11,17,21-trihydroxy-16-methylpregna-1,4-diene-3,20-dione] | 5 nM

System: MMP-1 (Matrix Metalloproteinase-1) production
Assay: glucocorticoid inhibition of IL-1 induced MMP-1 production in human chondrosarcoma cells
Type: cell-based
Settings: SW1353 human chondrosarcoma cells, 20 ng/ml IL-1 beta, 72 hours after IL-1 addition, ELISA; read-out: IC50, inhibitor of MMP1 expression
Experimental: as §1

Row | Structure (SMILES) | IC50
2 | C[C@@H]1C[C@H]2[C@@H]3CCC4=CC(=O)C=C[C@]4(C)[C@@]3(F)[C@@H](O)C[C@]2(C)[C@@]1(O)C(=O)CO [Dexamethasone, (11β,16α)-9-fluoro-11,17,21-trihydroxy-16-methylpregna-1,4-diene-3,20-dione] | 5 nM

System: not given
Assay: not given
Settings: not given

Row | Structure (SMILES) | melting point
3 | CC[C@@]12C[C@H](O)[C@](O)(c3c(F)cccc3F)C[C@H]1CCc1cc(OCc3cccnc3C)ccc12 (hydrate or solvate) [Example 56, (2R,3S,4aR,10aR)-2-(2,6-Difluoro-phenyl)-4a-ethyl-7-(2-methyl-pyridin-3-ylmethoxy)-1,2,3,4,4a,9,10,10a-octahydro-phenanthrene-2,3-diol] | 80 to 83 °C
4 | CC[C@@]12C[C@H](O)[C@](O)(c3c(F)cccc3F)C[C@H]1CCc1cc(O)ccc12 [Example 35, (2R,3S,4aR,10aR)-2-(2,6-difluorophenyl)-4a-ethyl-1,2,3,4,4a,9,10,10a-octahydrophenanthrene-2,3,7-triol] | 198 to 200 °C
5 | CC[C@@]12C[C@H](N)[C@](O)(c3ccccc3)C[C@H]1CCc1cc(O)ccc12 [Example 41, (2R,3S,4aR,10aR)-3-Amino-4a-ethyl-2-phenyl-1,2,3,4,4a,9,10,10a-octahydro-phenanthrene-2,7-diol] | 209 to 210 °C
6 | CC[C@@]12C[C@](O)(C(C)C)[C@](O)(c3ccccc3)C[C@H]1CCc1cc(O)ccc12 [Example 49] | 236 to 237 °C
7 | CC[C@@]12C[C@@](C)(O)[C@](O)(c3ccccc3)C[C@H]1CCc1cc(OCC(=O)O)ccc12 [Example 70, (4bR,6R,7R,8aR)-(4b-Ethyl-6,7-dihydroxy-6-methyl-7-phenyl-4b,5,6,7,8,8a,9,10-octahydro-phenanthren-2-yloxy)-acetic acid] | 190 to 191 °C
8 | CC[C@@]12C[C@@](C)(O)[C@](O)(c3ccccc3)C[C@H]1CCc1cc(OCC(C)(C)O)ccc12 [Example 73, (2R,3R,4aR,10aR)-4a-Ethyl-7-(2-hydroxy-2-methyl-propoxy)-3-methyl-2-phenyl-1,2,3,4,4a,9,10,10a-octahydro-phenanthrene-2,3-diol] | 190 to 193 °C
9 | CC[C@@]12C[C@@](C)(O)[C@](O)(c3ccccc3)C[C@H]1CCc1cc(OCc3nnn[nH]3)ccc12 [Example 76, (2R,3R,4aR,10aR)-4a-Ethyl-3-methyl-2-phenyl-7-(1H-tetrazol-5-ylmethoxy)-1,2,3,4,4a,9,10,10a-octahydro-phenanthrene-2,3-diol] | 108 to 110 °C
